For data set [1] the following is noted: cited from earlier work; for crossing of the blood-brain barrier / access to the CNS: after administration.
In another data set the target is T1, LAT1 transporter (Homo sapiens, UniProt Q01650).
T1 construct: expressed in transfected cells; host or cells: HEK-293
The data set is described as follows: AV-101 uptake in HEK-293 cells overexpressing LAT1. The data set is classed as cell-based. The source says: The L-Type Amino Acid Transporter 1 (LAT1, SLC7A5) is part of the SLC7 family and forms a heterodimer with CD98 via a disulphide bond (Mastroberardino, L. et al. Amino-acid transport by heterodimers of 4F2hc/CD98 and members of a permease family. Nature 395, 288-291, doi: 10.1038/26246 (1998)). CD98 (4F2hc, SLC3A2) is a type II glycoprotein that functions as a chaperone for LAT1, stabilizing and facilitating its translocation to the plasma membrane. LAT1 is the functional unit of the complex (Napolitano, L. et al. LAT1 is the transport competent unit of the LAT1/CD98 heterodimeric amino acid transporter. The international journal of biochemistry & cell biology, doi: 10.1016/j.biocel.2015.08.004 (2015)) and substrates include a range of large neutral amino acids such as tyrosine, leucine, isoleucine, valine and phenylalanine as well as pharmaceutical drugs including L-DOPA and gabapentin. (Dickens, D. et al. Transport of gabapentin by LAT1 (SLC7A5). Biochem Pharmacol 85, 1672-1683, doi: 10.1016/j.bcp.2013.03.022 (2013); Uchino, H. et al. Transport of amino acid-related compounds mediated by L-type amino acid transporter 1 (LAT1): insights into the mechanisms of substrate recognition. Molecular pharmacology 61, 729-737 (2002)). The SLC7A5 locus with rsid rs28582913 has a single nucleotide polymorphism, wherein the minor allele, T instead of C, at position 87843494 on chromosome 16, is present in approximately 18-56% of the population depending on ethnicity (https://www.ncbi.nlm.nih.gov/snp/rs28582913#frequency_tab), and results in a 1.94 fold increase in the kynurenine metabolite. […] Additionally, physiological amino acids reduce LAT1 mediated transport of AV-101.

Data set [2] has as its system Human brain endothelial cells. The data set is described as follows: AV-101 uptake in human brain endothelial cells. The data set is classed as cell-based. The source says: The L-Type Amino Acid Transporter 1 (LAT1, SLC7A5) is part of the SLC7 family and forms a heterodimer with CD98 via a disulphide bond (Mastroberardino, L. et al. Amino-acid transport by heterodimers of 4F2hc/CD98 and members of a permease family. Nature 395, 288-291, doi: 10.1038/26246 (1998)). CD98 (4F2hc, SLC3A2) is a type II glycoprotein that functions as a chaperone for LAT1, stabilizing and facilitating its translocation to the plasma membrane. LAT1 is the functional unit of the complex (Napolitano, L. et al. LAT1 is the transport competent unit of the LAT1/CD98 heterodimeric amino acid transporter. The international journal of biochemistry & cell biology, doi: 10.1016/j.biocel.2015.08.004 (2015)) and substrates include a range of large neutral amino acids such as tyrosine, leucine, isoleucine, valine and phenylalanine as well as pharmaceutical drugs including L-DOPA and gabapentin. (Dickens, D. et al. Transport of gabapentin by LAT1 (SLC7A5). Biochem Pharmacol 85, 1672-1683, doi: 10.1016/j.bcp.2013.03.022 (2013); Uchino, H. et al. Transport of amino acid-related compounds mediated by L-type amino acid transporter 1 (LAT1): insights into the mechanisms of substrate recognition. Molecular pharmacology 61, 729-737 (2002)). […]

In data set [3] the test system is depression, major depressive disorder. The data set is described as follows: Treatment of depression / MDD in genotyped subjects. The data set is classed as in vivo, human. The source says: In subjects with the BDNF variant, the A allele of the SNP rs6265 a higher dose of the L-4-CI-KYN results in the mood-enhancing or anti-depressive response. Subjects affirmatively report feelings of well-being. This is consistent with reports that the glutamatergic system contributes to the pathophysiology of depression and that stress can induce changes in NMDA receptors. See, for example, Calabrese, et al., PloS one vol. 7,5 (2012): e37916. Twenty-five subjects, both male and female, ages 18 to 65, with a diagnosis of MDD are treated with either L-4-CI-KYN (1,080 or 1,440 mg/day given orally) for 2 weeks, similar in design to similar studies. See e.g., Ibrahim et al. J Clin Psychopharmacol. 2012 August; 32(4): 551-557; Zarate et al. Biol Psychiatry. 2013 Aug. 15; 74(4):257-64; Zarate et al. Arch Gen Psychiatry. 2006 August; 63(8):856-64; Zarate et al. 2005 Biological psychiatry 57 (4), 430-432. The subjects are pre-screened to be positive for at least one of the following variant SNPs, the T allele of SNP rs61825638, the T allele of SNP rs28582913, or the C allele of rs2121337, or positive for the G allele of rs6265. In addition, a control group of twenty-five subjects is pre-screened as lacking any of: the T allele of SNP rs61825638, the T allele of SNP rs28582913, or the C allele of rs2121337, or lacking the G allele of SNP rs6265. […] Montgomery et al. 1979, Brit. J. Psych., 134:382-389. […]

This is an account of results in US20220202756A1, “GENETIC VARIANTS ASSOCIATED WITH RESPONSE TO TREATMENT OF NEUROLOGICAL DISORDERS” (VISTAGEN THERAPEUTICS, INC., priority 2019, published 2022).

T1 sequence (Q01650 whole entry): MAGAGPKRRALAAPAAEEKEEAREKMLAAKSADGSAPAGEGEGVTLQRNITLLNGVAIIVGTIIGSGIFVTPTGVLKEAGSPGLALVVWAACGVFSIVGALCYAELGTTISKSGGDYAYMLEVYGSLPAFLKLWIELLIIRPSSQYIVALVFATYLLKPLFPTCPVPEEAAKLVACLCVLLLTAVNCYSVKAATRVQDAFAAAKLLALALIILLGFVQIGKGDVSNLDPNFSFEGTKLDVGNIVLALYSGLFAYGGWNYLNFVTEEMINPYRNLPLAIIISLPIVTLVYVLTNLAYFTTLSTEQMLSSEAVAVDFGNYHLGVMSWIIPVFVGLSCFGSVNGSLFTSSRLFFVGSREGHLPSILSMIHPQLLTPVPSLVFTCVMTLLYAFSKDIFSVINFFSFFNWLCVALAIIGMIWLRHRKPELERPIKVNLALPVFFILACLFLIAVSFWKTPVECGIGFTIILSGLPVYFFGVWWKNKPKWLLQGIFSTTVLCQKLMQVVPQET
T1 sequence (P08195 102-630 partner): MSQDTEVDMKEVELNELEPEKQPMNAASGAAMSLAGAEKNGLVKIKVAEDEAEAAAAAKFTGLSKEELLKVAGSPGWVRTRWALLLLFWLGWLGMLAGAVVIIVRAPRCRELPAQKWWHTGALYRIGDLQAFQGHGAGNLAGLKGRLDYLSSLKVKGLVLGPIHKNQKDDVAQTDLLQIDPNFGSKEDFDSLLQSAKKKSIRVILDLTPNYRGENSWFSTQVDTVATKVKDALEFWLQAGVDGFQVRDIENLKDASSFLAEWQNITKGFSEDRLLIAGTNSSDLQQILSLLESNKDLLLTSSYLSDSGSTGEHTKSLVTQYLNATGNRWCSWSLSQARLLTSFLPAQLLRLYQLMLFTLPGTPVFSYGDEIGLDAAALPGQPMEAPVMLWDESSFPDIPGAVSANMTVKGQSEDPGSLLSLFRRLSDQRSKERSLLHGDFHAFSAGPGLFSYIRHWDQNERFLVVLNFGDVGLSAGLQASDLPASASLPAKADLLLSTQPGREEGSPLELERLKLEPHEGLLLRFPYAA

With `O=C(O)c1cc(O)c2ccc(Cl)cc2n1` [7-chlorokynurenic acid, reference compound], in data set [1], the “crossing of the blood-brain barrier / access to the CNS” value is recorded as “does not cross the blood-brain barrier”.
Regarding `Nc1cc(COc2c(Cl)cc(C[C@H](N)C(=O)O)cc2Cl)c2oc(-c3ccccc3)nc2c1` [JPH203, reference compound], the “effect on AV-101 uptake” value is recorded as “substantially reduced” at LAT1 transporter (LAT1 inhibitor added, HEK-293 cells overexpressing LAT1) and “significantly diminished” in data set [2] (in the presence of JPH203).
On to `Nc1cc(Cl)ccc1C(=O)CC(N)C(=O)O` [L-4-CI-KYN, L-4-chlorokynurenine], for which, on LAT1 transporter, the “substrate status for the LAT1 transporter” value is listed as “substrate for the LAT1 transporter”. The AV-101 uptake entry at LAT1 transporter (HEK-293 cells overexpressing LAT1) is given as “substantial increase”; in data set [2] it was “significant uptake”. Moreover, the “HDRS and/or MADRS total scores” value in data set [3] (MDD subjects, 1,080 or 1,440 mg/day orally for 2 weeks) is given as “significant decrease”. Moreover, the “mood enhancing or anti-depressive activity” value in data set [3] (subjects with KMO rs61825638 T, SLC7A5 rs28582913 T or ACMSD rs2121337 C variant) is “observed for a higher number of subjects, or for the same number of patients but at a lower dose”. Further, in data set [1], the “crossing of the blood-brain barrier / access to the CNS” value is given as “readily gains access to the central nervous system”. In addition, in data set [1] (within activated astrocytes), the “conversion to 7-chlorokynurenic acid” value is “efficiently converted”.
